Data published in patent publication US20090117083A1, “IMMUNOMODULATORY ALKALOIDS” (M N L PHARMA LIMITED, priority 2004, published 2009).
pKi: −log10 of the molar value. Like-named read-outs stand apart in the source and are kept apart here.

Legend:
[1] = system: dendritic cells; assay: Induction of IL-12 secretion in dendritic cells (ELISA); assay type: cell-based, BALB/c mice; details: casuarine alone, absence of LPS; 1 μg/ml versus 40 μg/ml
[2] = target: T1, α-D-glucosidase (Saccharomyces cerevisiae, UniProt P53341); assay: Glycosidase inhibition (p-nitrophenyl substrate): α-D-glucosidase, yeast; assay type: biochemical, Saccharomyces cerevisiae (Baker's yeast)
T1 construct: purchased Sigma
Procedure: All enzymes were purchased from Sigma, as were the appropriate p-nitrophenyl substrates. Assays were carried out in microtitre plates. Enzymes were assayed in 0.1M citric acid/0.2M di-sodium hydrogen phosphate (McIlvaine) buffers at the optimum pH for the enzyme. All assays were carried out at 20° C. For screening assays the incubation assay consisted of 10 μl of enzyme solution, 10 μl of inhibitor solution (made up in water) and 50 μl of the appropriate 5 mM p-nitrophenyl substrate (3.57 mM final conc.) made up in McIlvaine buffer at the optimum pH for the enzyme.
The reactions were stopped with 0.4M glycine (pH 10.4) during the exponential phase of the reaction, which was determined at the beginning of the assay using blanks with water, which were incubated for a range of time periods to measure the reaction rate using 5 mM substrate solution. Endpoint absorbances were read at 405 nm with a Biorad microtitre plate reader (Benchmark). Water was substituted for the inhibitors in the blanks.

[3] = target: T2, α-D-glucosidase (Oryza sativa subsp. japonica, UniProt Q653V7); assay: Glycosidase inhibition: α-D-glucosidase, rice; assay type: biochemical, rice (Oryza sativa); details: 1 mg/ml; read-out: % inhibition, gluc (rice)
T2 construct: purchased Sigma
Procedure, shortened: (§1)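 p-Nitrophenyl glycoside hydrolysis, 405 nm endpoint. Substrate 3.57 mM final; McIlvaine buffer at optimum pH per enzyme; 20° C; stop with 0.4M glycine pH 10.4 during exponential phase; water replaces inhibitor in blanks.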

[4] = target: T3, α-L-fucosidase (Bos taurus, UniProt Q2KIM0); assay: Glycosidase inhibition: α-L-fucosidase; assay type: biochemical, Bovine; details: 1 mg/ml; read-out: % inhibition, fucosidase
T3 construct: purchased Sigma
T3 sequence (Q2KIM0 23-468): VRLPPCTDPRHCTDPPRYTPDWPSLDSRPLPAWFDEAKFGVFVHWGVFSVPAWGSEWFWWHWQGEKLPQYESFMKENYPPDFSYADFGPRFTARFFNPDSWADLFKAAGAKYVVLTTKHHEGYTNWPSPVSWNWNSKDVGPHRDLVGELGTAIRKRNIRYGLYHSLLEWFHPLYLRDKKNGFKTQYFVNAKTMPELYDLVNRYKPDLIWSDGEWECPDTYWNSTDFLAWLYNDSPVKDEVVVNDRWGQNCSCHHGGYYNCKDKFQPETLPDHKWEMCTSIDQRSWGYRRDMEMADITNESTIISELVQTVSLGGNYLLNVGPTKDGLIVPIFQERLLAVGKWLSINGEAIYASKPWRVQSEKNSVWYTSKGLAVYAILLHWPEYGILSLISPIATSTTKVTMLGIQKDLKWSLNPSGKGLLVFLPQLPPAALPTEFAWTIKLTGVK
Procedure, shortened: as §1

[5] = system: Na^+-dependent D-glucose uptake; assay: Na+-dependent D-glucose uptake into intestinal brush border membrane vesicles; assay type: biochemical, ovine
[6] = system: HSV-1 (SC16)
[7] = Group 1: 15 mg/kg i.p. daily, day 0
[8] = Group 1: 15 mg/kg i.p. daily, day 1
[9] = Group 1: 15 mg/kg i.p. daily, day 2
[10] = Group 1: 15 mg/kg i.p. daily, day 3
[11] = Group 1: 15 mg/kg i.p. daily, day 4
[12] = Group 1: 15 mg/kg i.p. daily, day 5
[13] = Group 1: 15 mg/kg i.p. daily, day 6
[14] = Group 1: 15 mg/kg i.p. daily, day 7
[15] = Group 1: 15 mg/kg i.p. daily, day 8
[16] = Group 1: 15 mg/kg i.p. daily, day −2
[17] = Group 2: 150 mg/kg i.p. daily, day 0
[18] = Group 2: 150 mg/kg i.p. daily, day 1
[19] = Group 2: 150 mg/kg i.p. daily, day 2
[20] = Group 2: 150 mg/kg i.p. daily, day 3
[21] = Group 2: 150 mg/kg i.p. daily, day 4
[22] = Group 2: 150 mg/kg i.p. daily, day 5
[23] = Group 2: 150 mg/kg i.p. daily, day 6
[24] = Group 2: 150 mg/kg i.p. daily, day 7
[25] = Group 2: 150 mg/kg i.p. daily, day 8
[26] = Group 2: 150 mg/kg i.p. daily, day −2

T1 sequence (P53341 whole entry): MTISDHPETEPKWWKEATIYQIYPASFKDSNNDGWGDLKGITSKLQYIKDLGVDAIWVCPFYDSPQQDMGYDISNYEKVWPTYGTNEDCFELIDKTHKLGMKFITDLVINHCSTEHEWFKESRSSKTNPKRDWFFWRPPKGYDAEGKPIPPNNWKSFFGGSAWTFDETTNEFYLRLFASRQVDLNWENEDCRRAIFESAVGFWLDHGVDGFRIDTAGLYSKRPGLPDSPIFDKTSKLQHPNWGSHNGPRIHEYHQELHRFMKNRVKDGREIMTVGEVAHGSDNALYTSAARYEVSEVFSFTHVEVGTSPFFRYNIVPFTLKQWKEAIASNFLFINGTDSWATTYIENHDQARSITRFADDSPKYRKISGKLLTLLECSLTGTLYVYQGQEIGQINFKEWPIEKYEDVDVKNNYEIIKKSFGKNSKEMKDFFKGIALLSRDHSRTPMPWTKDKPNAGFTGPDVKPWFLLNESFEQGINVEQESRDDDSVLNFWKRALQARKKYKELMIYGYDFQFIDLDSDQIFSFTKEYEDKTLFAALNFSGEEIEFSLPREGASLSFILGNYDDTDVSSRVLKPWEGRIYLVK
T2 sequence (Q653V7 34-885): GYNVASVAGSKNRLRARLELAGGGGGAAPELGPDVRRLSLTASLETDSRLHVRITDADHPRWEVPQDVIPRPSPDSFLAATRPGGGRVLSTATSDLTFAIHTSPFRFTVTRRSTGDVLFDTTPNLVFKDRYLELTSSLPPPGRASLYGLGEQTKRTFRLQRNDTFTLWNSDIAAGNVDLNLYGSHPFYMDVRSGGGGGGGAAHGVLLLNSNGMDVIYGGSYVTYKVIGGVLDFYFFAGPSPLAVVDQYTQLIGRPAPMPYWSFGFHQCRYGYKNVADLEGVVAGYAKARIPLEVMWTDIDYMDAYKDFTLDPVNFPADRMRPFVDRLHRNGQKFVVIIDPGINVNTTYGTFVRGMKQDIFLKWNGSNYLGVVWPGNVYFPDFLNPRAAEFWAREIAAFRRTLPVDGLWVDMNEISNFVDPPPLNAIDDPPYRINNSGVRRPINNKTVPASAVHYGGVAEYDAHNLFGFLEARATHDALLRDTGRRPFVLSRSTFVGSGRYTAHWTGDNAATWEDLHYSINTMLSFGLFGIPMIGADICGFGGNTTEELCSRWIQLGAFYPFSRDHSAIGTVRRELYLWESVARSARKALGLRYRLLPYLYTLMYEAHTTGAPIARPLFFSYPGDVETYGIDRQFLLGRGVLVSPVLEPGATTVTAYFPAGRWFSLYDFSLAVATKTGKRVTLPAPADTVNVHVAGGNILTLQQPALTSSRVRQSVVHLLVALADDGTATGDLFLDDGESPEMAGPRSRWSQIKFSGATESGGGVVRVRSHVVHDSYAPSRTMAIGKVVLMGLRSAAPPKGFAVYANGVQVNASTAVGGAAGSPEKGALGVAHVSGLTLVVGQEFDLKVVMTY

Compound: OC[C@@H]1[C@@H](O)[C@H](O)[C@H]2[C@H](O)[C@@H](O)CN21 [casuarine (8)]
- induction of IL-12 secretion, dose response [1]: higher at low doses than high
- pKi [2]: 3.66
- inhibition at 1000 µg/mL ([2]; 1 mg/ml, read-out: % inhibition, gluc (yeast)): 64%
- inhibition at 1000 µg/mL [3]: 76%
- inhibition at 1000 µg/mL [4]: -1%
- Glucose uptake ([5]; initial rate, competition with labelled D-glucose, control 240): 265 pmol/s/mg
- glucose transport, effect ([5]; versus control): slightly stimulated
- Group mean weight [6, 7]: 16.7 g
- Weight (% change) [6, 7]: 3.1%
- Group mean weight [6, 8]: 17.1 g
- Weight (% change) [6, 8]: 5.6%
- Group mean weight [6, 9]: 17.1 g
- Weight (% change) [6, 9]: 5.6%
- Group mean weight [6, 10]: 17.6 g
- Weight (% change) [6, 10]: 8.6%
- Group mean weight [6, 11]: 17.4 g
- Weight (% change) [6, 11]: 7.4%
- Group mean weight [6, 12]: 17.6 g
- Weight (% change) [6, 12]: 8.6%
- Group mean weight [6, 13]: 17.7 g
- Weight (% change) [6, 13]: 9.2%
- Group mean weight [6, 14]: 17.4 g
- Weight (% change) [6, 14]: 7.4%
- Group mean weight [6, 15]: 17.7 g
- Weight (% change) [6, 15]: 9.3%
- Group mean weight [6, 16]: 16.2 g
- Weight (% change) [6, 16]: 0%
- Group mean weight [6, 17]: 16 g
- Weight (% change) [6, 17]: 3.2%
- Group mean weight [6, 18]: 16.4 g
- Weight (% change) [6, 18]: 5.8%
- Group mean weight [6, 19]: 16.3 g
- Weight (% change) [6, 19]: 5.2%
- Group mean weight [6, 20]: 16.6 g
- Weight (% change) [6, 20]: 7.1%
- Group mean weight [6, 21]: 16.4 g
- Weight (% change) [6, 21]: 5.8%
- Group mean weight [6, 22]: 16.8 g
- Weight (% change) [6, 22]: 8.4%
- Group mean weight [6, 23]: 17 g
- Weight (% change) [6, 23]: 9.7%
- Group mean weight [6, 24]: 16.7 g
- Weight (% change) [6, 24]: 7.7%
- Group mean weight [6, 25]: 16.8 g
- Weight (% change) [6, 25]: 8.4%
- Group mean weight [6, 26]: 15.5 g
- Weight (% change) [6, 26]: 0%
- ear thickness response ([6]; versus infected untreated group): produced a reduction in ear thickness
